Results reported in ChEMBL document CHEMBL5380874, “Transformation of a Dopamine D2 Receptor Agonist to Partial Agonists as Novel Antipsychotic Agents” (J Med Chem, 2023).

Tests used:
[1] = target: T1, D(2) dopamine receptor (Homo sapiens, UniProt P14416); test: Displacement of [3H]N-methylspiperone from Dopamine D2 receptor (unknown origin) expressed in HEK293T cell membrane incubated for 2 hrs by radioligand competitive binding based MicroBeta TriLux reader method; assay type: cell membranes
[2] = target: T1, D(2) dopamine receptor; test: Partial agonist activity at Dopamine D2 receptor (unknown origin) expressed in HEK293T coexpressing beta-arrestin-2 assessed as increase in cAMP accumulation incubated for 5 mins by beta-arrestin recruitment based BRET assay; assay type: functional, cell-based
[3] = target: T1, D(2) dopamine receptor; test: Partial agonist activity at Dopamine D2 receptor (unknown origin) expressed in HEK293T co-expressing G-alphai assessed as increase in cAMP accumulation incubated for 5 mins by BRET assay; assay type: functional, cell-based
[4] = Ratio of drug concentration in brain to plasma in C57BL/6J mouse at 5 mg/kg,ip measured at 0.5 hrs by LC-MS analysis; assay type: ADME, organism-based; conditions: read-out: BPR
[5] = Drug concentration in C57BL/6J mouse plasma at 5 mg/kg,ip measured at 2 hrs by LC-MS analysis; assay type: ADME, organism-based; conditions: in vivo
[6] = Drug concentration in C57BL/6J mouse brain at 5 mg/kg,ip measured at 2 hrs by LC-MS analysis; assay type: ADME, organism-based; conditions: read-out: Ct
[7] = Drug concentration in C57BL/6J mouse brain at 5 mg/kg,ip measured at 0.5 hrs by LC-MS analysis; assay type: ADME, organism-based; conditions: read-out: Ct
[8] = Ratio of drug concentration in brain to plasma in C57BL/6J mouse at 5 mg/kg,ip measured at 2 hrs by LC-MS analysis; assay type: ADME, organism-based; conditions: read-out: BPR
[9] = Oral bioavailability in Sprague-Dawley rat at 10 mg/kg measured upto 24 hrs by LC-MS analysis; assay type: ADME, organism-based; conditions: in vivo
[10] = Half life in Sprague-Dawley rat at 3 mg/kg,iv measured upto 24 hrs by LC-MS analysis; assay type: ADME, organism-based; conditions: in vivo
[11] = Tmax in Sprague-Dawley rat at 10 mg/kg,po measured upto 24 hrs by LC-MS analysis; assay type: ADME, organism-based; conditions: in vivo
[12] = Half life in Sprague-Dawley rat at 10 mg/kg,po measured upto 24 hrs by LC-MS analysis; assay type: ADME, organism-based; conditions: in vivo
[13] = target: T2, 5-hydroxytryptamine receptor 2C (Homo sapiens, UniProt P28335); test: Displacement of [3H]-LSD from 5-HT2C receptor (unknown origin) expressed in HEK293T cell membrane incubated for 2 hrs by radioligand competitive binding based MicroBeta TriLux reader method; assay type: cell membranes
T2 sequence (P28335 whole entry): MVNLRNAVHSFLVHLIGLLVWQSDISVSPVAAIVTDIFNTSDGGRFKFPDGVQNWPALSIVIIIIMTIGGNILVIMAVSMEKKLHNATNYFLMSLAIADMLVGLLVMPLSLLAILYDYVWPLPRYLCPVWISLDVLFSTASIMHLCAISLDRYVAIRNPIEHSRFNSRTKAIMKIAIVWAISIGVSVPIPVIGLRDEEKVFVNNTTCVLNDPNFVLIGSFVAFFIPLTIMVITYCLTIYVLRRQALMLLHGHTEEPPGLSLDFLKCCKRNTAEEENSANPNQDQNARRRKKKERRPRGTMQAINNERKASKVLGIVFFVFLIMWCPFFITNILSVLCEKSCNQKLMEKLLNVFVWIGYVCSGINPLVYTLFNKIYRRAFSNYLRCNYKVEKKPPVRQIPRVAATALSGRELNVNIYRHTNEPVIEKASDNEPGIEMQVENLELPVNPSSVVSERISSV

[14] = AUC (0-infinity) in Sprague-Dawley rat at 3 mg/kg,iv measured upto 24 hrs by LC-MS analysis; assay type: ADME, organism-based; parameters: dose 3 mg/kg, time < 24 hrs, route iv; conditions: in vivo
[15] = AUC (0-infinity) in Sprague-Dawley rat at 10 mg/kg,po measured upto 24 hrs by LC-MS analysis; assay type: ADME, organism-based; parameters: dose 10 mg/kg, time < 24 hrs, route po; conditions: in vivo
[16] = AUC (0-t) in Sprague-Dawley rat at 10 mg/kg,po measured upto 24 hrs by LC-MS analysis; assay type: ADME, organism-based; parameters: time < 24 hrs, dose 10 mg/kg, route po; conditions: in vivo
[17] = Clearance in Sprague-Dawley rat at 3 mg/kg,iv measured upto 24 hrs by LC-MS analysis; assay type: ADME, organism-based; conditions: in vivo
[18] = target: D(1A) dopamine receptor (Homo sapiens, UniProt P21728); test: Displacement of [3H]-SCH23390 from Dopamine D1 receptor (unknown origin) expressed in HEK293T cell membrane incubated for 2 hrs by radioligand competitive binding based MicroBeta TriLux reader method; assay type: cell membranes
[19] = AUC (0-t) in Sprague-Dawley rat at 3 mg/kg,iv measured upto 24 hrs by LC-MS analysis; assay type: ADME, organism-based; parameters: dose 3 mg/kg, time < 24 hrs, route iv; conditions: in vivo
[20] = target: D(1B) dopamine receptor (Homo sapiens, UniProt P21918); test: Displacement of […] from Dopamine D5 receptor (unknown origin) expressed in HEK293T cell membrane incubated for 2 hrs by radioligand competitive binding based MicroBeta TriLux reader method; assay type: cell membranes
[21] = C0 in Sprague-Dawley rat at 3 mg/kg,iv measured upto 24 hrs by LC-MS analysis; assay type: ADME, organism-based; conditions: in vivo
[22] = Cmax in Sprague-Dawley rat at 10 mg/kg,po measured upto 24 hrs by LC-MS analysis; assay type: ADME, organism-based; parameters: time < 24 hrs, dose 10 mg/kg, route po; conditions: in vivo
[23] = Drug concentration in C57BL/6J mouse plasma at 5 mg/kg,ip measured at 0.5 hrs by LC-MS analysis; assay type: ADME, organism-based; conditions: in vivo

T1 sequence (P14416 whole entry): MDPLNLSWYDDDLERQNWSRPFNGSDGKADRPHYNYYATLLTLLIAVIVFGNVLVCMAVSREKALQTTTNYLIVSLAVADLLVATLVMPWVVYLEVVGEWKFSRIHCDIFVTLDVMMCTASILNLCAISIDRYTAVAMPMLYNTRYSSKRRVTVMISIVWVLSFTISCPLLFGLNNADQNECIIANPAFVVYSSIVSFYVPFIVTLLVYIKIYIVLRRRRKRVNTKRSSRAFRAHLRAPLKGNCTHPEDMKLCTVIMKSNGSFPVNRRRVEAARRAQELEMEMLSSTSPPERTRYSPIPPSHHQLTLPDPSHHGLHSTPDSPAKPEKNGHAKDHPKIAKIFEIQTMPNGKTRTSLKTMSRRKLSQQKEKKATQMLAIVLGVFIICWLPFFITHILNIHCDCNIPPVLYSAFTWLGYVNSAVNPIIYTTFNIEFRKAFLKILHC
Chain of D(1A) dopamine receptor (P21728 whole entry): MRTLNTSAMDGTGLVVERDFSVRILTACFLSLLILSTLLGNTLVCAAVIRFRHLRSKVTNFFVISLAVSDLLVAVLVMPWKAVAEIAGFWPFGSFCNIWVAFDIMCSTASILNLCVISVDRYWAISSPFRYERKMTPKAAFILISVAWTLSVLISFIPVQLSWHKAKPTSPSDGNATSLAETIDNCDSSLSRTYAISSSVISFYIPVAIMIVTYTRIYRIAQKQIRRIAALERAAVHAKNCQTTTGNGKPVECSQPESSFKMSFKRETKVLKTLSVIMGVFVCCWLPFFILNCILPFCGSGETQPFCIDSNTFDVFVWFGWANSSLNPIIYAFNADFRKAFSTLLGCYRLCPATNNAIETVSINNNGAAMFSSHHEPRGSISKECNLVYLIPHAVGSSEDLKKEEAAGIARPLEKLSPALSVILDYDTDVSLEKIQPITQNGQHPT
Chain of D(1B) dopamine receptor (P21918 whole entry): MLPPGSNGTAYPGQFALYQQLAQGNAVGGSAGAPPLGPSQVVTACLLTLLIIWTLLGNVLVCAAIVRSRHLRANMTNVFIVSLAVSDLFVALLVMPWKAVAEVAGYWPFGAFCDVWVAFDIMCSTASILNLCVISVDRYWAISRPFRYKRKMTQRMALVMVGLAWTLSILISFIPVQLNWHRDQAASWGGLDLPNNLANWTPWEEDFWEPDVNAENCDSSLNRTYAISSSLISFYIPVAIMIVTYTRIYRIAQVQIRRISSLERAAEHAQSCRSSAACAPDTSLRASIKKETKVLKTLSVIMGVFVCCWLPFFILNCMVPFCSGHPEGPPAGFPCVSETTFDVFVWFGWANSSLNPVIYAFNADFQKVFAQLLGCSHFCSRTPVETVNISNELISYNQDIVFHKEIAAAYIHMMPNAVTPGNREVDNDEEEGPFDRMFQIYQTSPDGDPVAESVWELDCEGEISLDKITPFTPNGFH

COc1cccc2c3c(oc12)CN(CCCCOc1ccc2cccnc2c1)CC3
Ki ([1]; read-out: Ki): 1.34 µM | EC50 ([2]; read-out: EC50): 0.518 µM | EC50 ([3]; read-out: EC50): 2.21 µM

CCOc1cccc2cc(CNCCCCOc3ccc4c(c3)NC(=O)CC4)oc12
Kp at 0.5 h [4]: 0.142 | Cp [5]: 53.8 ng/mL | concentration at 2 h [6]: 6.05 ng/mL | concentration at 0.5 h [7]: 168 ng/mL | Kp at 2 h [8]: 0.113

CCOc1cccc2cc(CNCCCCOc3ccc4oc(C)nc4c3)oc12
Ki ([1]; read-out: Ki): 0.935 µM | Ki ([1]; read-out: pKi (converted)): 0.955 µM | EC50 ([2]; read-out: EC50): 0.125 µM | EC50 ([2]; read-out: pEC50 (converted)): 0.135 µM | EC50 ([3]; read-out: EC50): 2.67 µM

CCOc1cccc2c3c(oc12)CN(CCCCOc1ccc2ccc(=O)[nH]c2c1)CC3
EC50 ([3]; hek293t): Not Active

COc1cccc2cc(CNCCCOc3ccc4ccc(=O)[nH]c4c3)sc12
Ki ([1]; read-out: Ki): 0.181 µM | EC50 ([2]; read-out: EC50): 0.0205 µM | EC50 ([3]; read-out: EC50): 0.27 µM

CCOc1cccc2cc(C(C)NCC3(O)CCCCC3)oc12 (configuration not stated)
Ki ([1]; read-out: Ki): 2.13 µM

COc1cccc2c3c(oc12)CN(CCCCOc1ccc2ccc(=O)[nH]c2c1)CC3
bioavailability [9]: 88.8% | half-life [10]: 3.48 h | Tmax [11]: 0.5 h | half-life [12]: 2.87 h | Ki ([13]; read-out: Ki): 0.555 µM | Ki ([13]; read-out: pKi (converted)): 0.562 µM | AUC(0-inf) [14]: 3010 ng·h/mL | Cp [5]: 397 ng/mL | AUC(0-inf) [15]: 8940 ng·h/mL | AUC(0-t) at 24 h [16]: 8920 ng·h/mL | clearance [17]: 16.7 mL/min/kg | Ki ([18]; read-out: Ki): 0.189 µM | AUC(0-t) at 24 h [19]: 2990 ng·h/mL | Ki ([20]; read-out: Ki): 1.04 µM | C0 at 24 h [21]: 1330 ng/mL | EC50 ([3]; read-out: EC50): 0.0188 µM | Cmax [22]: 1560 ng/mL

CCOc1cccc2cc(CNCC[C@H]3CC[C@H](NC(=O)N(C)C)CC3)oc12
Ki ([1]; read-out: Ki): 0.0993 µM | EC50 ([2]; read-out: EC50): 0.00381 µM | EC50 ([3]; read-out: EC50): 0.0147 µM

CCOc1cccc2cc(CNCC[C@H]3CC[C@H](NC(=O)C4CC4)CC3)oc12
Ki ([1]; read-out: Ki): 0.0628 µM | EC50 ([2]; read-out: EC50): 0.00408 µM | EC50 ([3]; read-out: EC50): 0.0068 µM

CC(C)Oc1cccc2c3c(oc12)CN(CCCCOc1ccc2ccc(=O)[nH]c2c1)CC3
EC50 ([3]; hek293t): Not Active

COc1cccc2c3c(oc12)CN(CCCCOc1ccc2c(c1)NC(=O)C2)CC3
Ki ([1]; read-out: Ki): 3.19 µM | Ki ([1]; read-out: pKi (converted)): 3.24 µM | EC50 ([2]; read-out: EC50): 1.34 µM | EC50 ([2]; read-out: pEC50 (converted)): 1.41 µM | EC50 ([3]; read-out: EC50): 0.869 µM

CCOc1cccc2cc(CNCC[C@H]3CC[C@H](NC(=O)N4CCCC4)CC3)oc12
Ki ([1]; read-out: Ki): 0.0679 µM | Ki ([1]; read-out: pKi (converted)): 0.0692 µM | EC50 ([2]; read-out: EC50): 0.0062 µM | EC50 ([3]; read-out: EC50): 0.0109 µM

COc1cccc2c3c(oc12)CN(CCCCOc1ccc2ccc(=O)n(C)c2c1)CC3
Ki ([1]; read-out: Ki): 2.28 µM

CCOc1cccc2cc(CNCCCCCOc3ccc4c(c3)NC(=O)CC4)oc12
Ki ([1]; read-out: Ki): 0.439 µM | Ki ([1]; read-out: pKi (converted)): 0.447 µM | EC50 ([2]; read-out: EC50): 0.0451 µM | EC50 ([2]; read-out: pEC50 (converted)): 0.0457 µM | EC50 ([3]; read-out: EC50): 0.955 µM

COc1cccc2cc(CNCCCCOc3ccc4c(c3)NC(=O)CC4)oc12
Kp at 0.5 h [4]: 0.183 | Cp [5]: 10.7 ng/mL | concentration at 2 h [6]: 4.1 ng/mL | concentration at 0.5 h [7]: 60.7 ng/mL | Ki ([1]; read-out: Ki): 0.0333 µM | Ki ([1]; read-out: pKi (converted)): 0.0339 µM | Kp at 2 h [8]: 0.384 | Cp [23]: 331 ng/mL | EC50 ([2]; read-out: EC50): 0.00201 µM | EC50 ([3]; read-out: EC50): 0.00516 µM

CCOc1cccc2cc(CNCCCOc3ccc4c(c3)NC(=O)CC4)oc12
Ki ([1]; read-out: Ki): 0.109 µM | EC50 ([2]; read-out: EC50): 0.0122 µM | EC50 ([3]; read-out: EC50): 0.0304 µM

COc1cccc2c3c(oc12)CN(CCCCOc1ccc2c(c1)NC(=O)CC2)CC3
Ki ([13]; read-out: Ki): 0.611 µM | Kp at 0.5 h [4]: 0.759 | Cp [5]: 571 ng/mL | concentration at 2 h [6]: 332 ng/mL | concentration at 0.5 h [7]: 410 ng/mL | Ki ([18]; read-out: Ki): 0.0355 µM | Ki ([18]; read-out: pKi (converted)): 0.0363 µM | Kp at 2 h [8]: 0.439 | Ki ([20]; read-out: Ki): 0.159 µM | Ki ([20]; read-out: pKi (converted)): 0.162 µM | Cp [23]: 540 ng/mL

COc1cccc2c3c(oc12)CN(CCCOc1ccc2ccc(=O)[nH]c2c1)CC3
EC50 ([2]; read-out: EC50): 0.0266 µM | EC50 ([3]; read-out: EC50): 0.00031 µM

O=c1ccc2ccc(OCCCCNCc3cc4ccccc4o3)cc2[nH]1
Ki ([1]; read-out: Ki): 0.239 µM | EC50 ([2]; read-out: EC50): 0.00251 µM | EC50 ([3]; read-out: EC50): 0.0258 µM

CCOc1cccc2cc(CNCCCCOc3ccc4ccc(=O)[nH]c4c3)oc12
Kp at 0.5 h [4]: 0.061 | Cp [5]: 53.1 ng/mL | concentration at 2 h [6]: 5.76 ng/mL | concentration at 0.5 h [7]: 48.3 ng/mL | Ki ([1]; read-out: Ki): 0.00012 µM | Ki ([1]; read-out: pKi (converted)): 0.000129 µM | Kp at 2 h [8]: 0.109 | Cp [23]: 792 ng/mL | EC50 ([2]; read-out: EC50): 0.00022 µM | EC50 ([3]; read-out: EC50): 0.00013 µM | EC50 ([3]; read-out: pEC50 (converted)): 0.000123 µM

COc1cccc2c3c(oc12)CN(C/C=C/COc1ccc2ccc(=O)[nH]c2c1)CC3
EC50 ([2]; read-out: EC50): 0.023 µM

COc1cccc2cc(CNCCCCOc3ccc4ccc(=O)[nH]c4c3)oc12
Kp at 0.5 h [4]: 0.118 | Cp [5]: 6.95 ng/mL | concentration at 2 h [6]: 3.02 ng/mL | concentration at 0.5 h [7]: 32.1 ng/mL | Kp at 2 h [8]: 0.434 | Cp [23]: 272 ng/mL

O=C1CCc2ccc(OCCCCNCc3cc4ccccc4o3)cc2N1
Ki ([1]; read-out: Ki): 0.582 µM | EC50 ([2]; read-out: EC50): 0.00729 µM | EC50 ([3]; read-out: EC50): 0.0537 µM
